{
  "source": "patent US12233140B2",
  "about": "“Hyperbranched polyglycerol-coated particles and methods of making and using thereof” (priority 2014, dated 2025)",
  "key": {"[1]": {"assay": "Retention of IR-780 loaded NPs in the peritoneal cavity after IP administration (live imaging)", "details": "free dye control", "experimental": "Six BALB/c nude mice were divided into 2 groups, 3 mice per group. […] Each mouse received 100 μL NP suspensions. The fluorescence was monitored with live imaging (Xenogen Corp., Alameda, CA) over time. The quantification of fluorescence retained in intraperitoneal cavity over time was determined.\nEach mouse received 100 μL of the nanoparticle suspension at 10 mg/mL. The fluorescence was monitored with live imaging (Xenogen, Alameda, CA) over time."}, "[2]": {"test_system": "i.p. USC tumors (USC-ARK-2 xenografts)", "assay": "Survival and body weight of nude mice bearing intraperitoneal USC tumors, IP treatment", "format": "in vivo", "procedure": "Forty BALB/c Nude mice (5-6 weeks old, Charles River Laboratories) were intraperitoneally injected with 1×10^6 UPSC cells. After 1 week, drug treatments were started with PBS control, blank PLA-HPGALD control and 3 EB formulations. […] Treatments were administrated intraperitoneally with a dose of EB (0.5 mg/kg) every week for 5 weeks. The body weights of the mice were measured twice a week. Animals were euthanized when the body weight loss exceeded 20%, or when other signals of sickness, such as breathing problems, failure to eat and drink, lethargy or abnormal posture, were observed.\nBALB/c Nude mice (5-6 weeks old, Charles River Laboratories) were intraperitoneally injected with 1×10^6 USC cells. After 1 week, drug treatments were started with 8 animals in each group. […] In this experiment, treatments were administrated intraperitoneally with a 2.5 mg/kg dose of EB every week for 3 weeks. In another experiment, five groups were compared as described in Example 11.\nThe body weights of the mice were measured as described in Example 11."}, "[3]": {"test_system": "uterine papillary serous carcinoma (UPSC) cells", "assay": "In vitro cytotoxicity on UPSC cells, 72 h (Cell Titer Blue)", "format": "cell-based", "details": "3 days", "procedure": "UPSC cells (180 μL) were plated in each well of a 96 well plate at a density of 2,000/well and left in a 37° C. incubator overnight. […] The cells were incubated for 72 h and cell viability was quantified with Cell Titer Blue."}, "[4]": {"assay": "Retention profile of EB in peritoneal cavity after IP injection (HPLC)", "details": "6 hr after a single IP dose, EB 2.5 mg/kg", "experimental": "C57BL/6 mice (5-6 weeks old, Charles River Laboratories) were divided into three groups with 9 mice per group and one group with 3 mice. The group with 3 mice was used as a vehicle control. […] At each time point (6 hr, 1 d and 3 d), 3 mice from each group and one mouse from the 3-animal vehicle control group were euthanized and the peritoneal cavities washed with 5 mL acetonitrile for 3 times. The acetonitrile samples were centrifuged and the supernatant was collected and processed for HPLC analysis. EB concentration was determined with HPLC with C18 column with methanol/water (7:3) with UV detector set at 240 nm absorbance."}},
  "data": [
    {"smiles": "CCCN1C(=CC=C2CCCC(C=CC3=[N+](CCC)c4ccccc4C3(C)C)=C2Cl)C(C)(C)c2ccccc21.[I-]", "note": "[Free dye, IR-780 iodide]", "values": [
      {"measurement": "time to complete clearance from the IP cavity", "setting": "[1]", "result": "less than 4 hours"}
    ]},
    {"smiles": "C/C(=C\\c1csc(C)n1)[C@@H]1C[C@@H]2O[C@]2(C)CCC[C@H](C)[C@H](O)[C@@H](C)C(=O)C(C)(C)[C@@H](O)CC(=O)O1", "note": "[free EB, epothilone B]", "values": [
      {"measurement": "animals surviving to 110 days", "setting": "[2]; EB 0.5 mg/kg", "result": "approximately 10%"},
      {"measurement": "body weight", "setting": "[2]; EB 2.5 mg/kg", "result": "weight loss"},
      {"measurement": "death due to toxicity", "setting": "[2]; EB 2.5 mg/kg", "result": "early death due to EB toxicity"},
      {"measurement": "survival compared with PBS", "setting": "[2]; EB 2.5 mg/kg IP weekly for 3 weeks", "result": "only mice treated with the lower dosage showed significance"},
      {"measurement": "toxicity (weight loss, diarrhea, bowel dilation)", "setting": "[2]; FIG. 18B", "result": "significant toxicity"},
      {"measurement": "survival compared with PBS", "setting": "[2]; five-group experiment, EB 0.5 mg/kg IP weekly for 5 weeks", "result": "showed significance"},
      {"measurement": "in vitro cytotoxicity against UPSC cells", "setting": "[3]", "result": "highest toxicity"},
      {"measurement": "EB retained in the peritoneal cavity", "setting": "[4]", "result": "No EB was detected"}
    ]}
  ]
}
